Test results: patent US20240325398A1, “COMBINATION THERAPIES” (Infinity Pharmaceuticals, Inc., priority 2014, published 2024)

Legend:
SU-DHL-6-epst = assay: Combination study of Compound 1 or CAL-101 and a second therapeutic agent (Synergy Score, CI50); type: cell-based
Farage = assay: Combination study, ATPLite 72 h, dose matrix (Synergy Score, CI50); conditions: Farage
KARPAS-422 = assay: as above
SU-DHL-10-epst = assay: as above
OCI-Ly7 = assay: as above
WSU-NHL = assay: as above
DOHH-2 = assay: as above
SU-DHL-4-epst = assay: as above
RL = assay: as above

CC[C@H](Nc1ncnc2[nH]cnc12)c1nc2cccc(F)c2c(=O)n1-c1ccccc1 [CAL-101]
CI50 growth inhibition (SU-DHL-6-epst; combination with Dexamethasone): T (T=0.5 to <0.7)
CI50 inhibition (SU-DHL-6-epst; combination with Dexamethasone): S (S=0.01 to <0.5)
Synergy Score growth inhibition (SU-DHL-6-epst; combination with Dexamethasone): A2 (A2=1 to <3)
Synergy Score inhibition (SU-DHL-6-epst; combination with Dexamethasone): A2 (A2=1 to <3)
CI50 growth inhibition (SU-DHL-6-epst; combination with LEE011): S (S=0.01 to <0.5)
CI50 inhibition (SU-DHL-6-epst; combination with LEE011): S (S=0.01 to <0.5)
Synergy Score growth inhibition (SU-DHL-6-epst; combination with LEE011): A2 (A2=1 to <3)
Synergy Score inhibition (SU-DHL-6-epst; combination with LEE011): A2 (A2=1 to <3)
CI50 growth inhibition (SU-DHL-6-epst; combination with PCI-32765): T (T=0.5 to <0.7)
CI50 inhibition (SU-DHL-6-epst; combination with PCI-32765): T (T=0.5 to <0.7)
Synergy Score growth inhibition (SU-DHL-6-epst; combination with PCI-32765): A2 (A2=1 to <3)
Synergy Score inhibition (SU-DHL-6-epst; combination with PCI-32765): A2 (A2=1 to <3)
CI50 growth inhibition (SU-DHL-6-epst; combination with PD-0332991): T (T=0.5 to <0.7)
CI50 inhibition (SU-DHL-6-epst; combination with PD-0332991): T (T=0.5 to <0.7)
Synergy Score growth inhibition (SU-DHL-6-epst; combination with PD-0332991): A2 (A2=1 to <3)
Synergy Score inhibition (SU-DHL-6-epst; combination with PD-0332991): A2 (A2=1 to <3)
CI50 growth inhibition (Farage; combination with Dexamethasone): U (U=0.7 to <1)
CI50 inhibition (Farage; combination with Dexamethasone): S (S=0.01 to <0.5)
Synergy Score growth inhibition (Farage; combination with Dexamethasone): A3 (A3=>3)
Synergy Score inhibition (Farage; combination with Dexamethasone): A3 (A3=>3)
CI50 growth inhibition (Farage; combination with LEE011): W (W=≥1)
CI50 inhibition (Farage; combination with LEE011): W (W=≥1)
Synergy Score growth inhibition (Farage; combination with LEE011): A1 (A1=0.0001 to <1)
Synergy Score inhibition (Farage; combination with LEE011): A1 (A1=0.0001 to <1)
CI50 growth inhibition (Farage; combination with PCI-32765): S (S=0.01 to <0.5)
CI50 inhibition (Farage; combination with PCI-32765): S (S=0.01 to <0.5)
Synergy Score growth inhibition (Farage; combination with PCI-32765): A3 (A3=>3)
Synergy Score inhibition (Farage; combination with PCI-32765): A3 (A3=>3)
CI50 growth inhibition (Farage; combination with PD-0332991): T (T=0.5 to <0.7)
CI50 inhibition (Farage; combination with PD-0332991): T (T=0.5 to <0.7)
Synergy Score growth inhibition (Farage; combination with PD-0332991): A2 (A2=1 to <3)
Synergy Score inhibition (Farage; combination with PD-0332991): A1 (A1=0.0001 to <1)
CI50 growth inhibition (KARPAS-422; combination with Dexamethasone): U (U=0.7 to <1)
CI50 inhibition (KARPAS-422; combination with Dexamethasone): T (T=0.5 to <0.7)
Synergy Score growth inhibition (KARPAS-422; combination with Dexamethasone): A3 (A3=>3)
Synergy Score inhibition (KARPAS-422; combination with Dexamethasone): A2 (A2=1 to <3)
CI50 growth inhibition (KARPAS-422; combination with LEE011): T (T=0.5 to <0.7)
CI50 inhibition (KARPAS-422; combination with LEE011): T (T=0.5 to <0.7)
Synergy Score growth inhibition (KARPAS-422; combination with LEE011): A2 (A2=1 to <3)
Synergy Score inhibition (KARPAS-422; combination with LEE011): A2 (A2=1 to <3)
CI50 growth inhibition (KARPAS-422; combination with PCI-32765): S (S=0.01 to <0.5)
CI50 inhibition (KARPAS-422; combination with PCI-32765): S (S=0.01 to <0.5)
Synergy Score growth inhibition (KARPAS-422; combination with PCI-32765): A3 (A3=>3)
Synergy Score inhibition (KARPAS-422; combination with PCI-32765): A2 (A2=1 to <3)
CI50 growth inhibition (KARPAS-422; combination with PD-0332991): S (S=0.01 to <0.5)
CI50 inhibition (KARPAS-422; combination with PD-0332991): S (S=0.01 to <0.5)
Synergy Score growth inhibition (KARPAS-422; combination with PD-0332991): A3 (A3=>3)
Synergy Score inhibition (KARPAS-422; combination with PD-0332991): A2 (A2=1 to <3)
CI50 growth inhibition (SU-DHL-10-epst; combination with Dexamethasone): S (S=0.01 to <0.5)
CI50 inhibition (SU-DHL-10-epst; combination with Dexamethasone): S (S=0.01 to <0.5)
Synergy Score growth inhibition (SU-DHL-10-epst; combination with Dexamethasone): A3 (A3=>3)
Synergy Score inhibition (SU-DHL-10-epst; combination with Dexamethasone): A2 (A2=1 to <3)
CI50 growth inhibition (SU-DHL-10-epst; combination with LEE011): T (T=0.5 to <0.7)
CI50 inhibition (SU-DHL-10-epst; combination with LEE011): T (T=0.5 to <0.7)
Synergy Score growth inhibition (SU-DHL-10-epst; combination with LEE011): A3 (A3=>3)
Synergy Score inhibition (SU-DHL-10-epst; combination with LEE011): A2 (A2=1 to <3)
CI50 growth inhibition (SU-DHL-10-epst; combination with PCI-32765): U (U=0.7 to <1)
CI50 inhibition (SU-DHL-10-epst; combination with PCI-32765): U (U=0.7 to <1)
Synergy Score growth inhibition (SU-DHL-10-epst; combination with PCI-32765): A2 (A2=1 to <3)
Synergy Score inhibition (SU-DHL-10-epst; combination with PCI-32765): A2 (A2=1 to <3)
CI50 growth inhibition (SU-DHL-10-epst; combination with PD-0332991): S (S=0.01 to <0.5)
CI50 inhibition (SU-DHL-10-epst; combination with PD-0332991): S (S=0.01 to <0.5)
Synergy Score growth inhibition (SU-DHL-10-epst; combination with PD-0332991): A3 (A3=>3)
Synergy Score inhibition (SU-DHL-10-epst; combination with PD-0332991): A3 (A3=>3)
CI50 growth inhibition (OCI-Ly7; combination with Dexamethasone): S (S=0.01 to <0.5)
CI50 inhibition (OCI-Ly7; combination with Dexamethasone): T (T=0.5 to <0.7)
Synergy Score growth inhibition (OCI-Ly7; combination with Dexamethasone): A3 (A3=>3)
Synergy Score inhibition (OCI-Ly7; combination with Dexamethasone): A2 (A2=1 to <3)
CI50 growth inhibition (OCI-Ly7; combination with LEE011): W (W=≥1)
Synergy Score growth inhibition (OCI-Ly7; combination with LEE011): A1 (A1=0.0001 to <1)
Synergy Score inhibition (OCI-Ly7; combination with LEE011): A1 (A1=0.0001 to <1)
CI50 growth inhibition (OCI-Ly7; combination with PCI-32765): W (W=≥1)
Synergy Score growth inhibition (OCI-Ly7; combination with PCI-32765): A1 (A1=0.0001 to <1)
Synergy Score inhibition (OCI-Ly7; combination with PCI-32765): A1 (A1=0.0001 to <1)
CI50 growth inhibition (OCI-Ly7; combination with PD-0332991): S (S=0.01 to <0.5)
CI50 inhibition (OCI-Ly7; combination with PD-0332991): T (T=0.5 to <0.7)
Synergy Score growth inhibition (OCI-Ly7; combination with PD-0332991): A2 (A2=1 to <3)
Synergy Score inhibition (OCI-Ly7; combination with PD-0332991): A2 (A2=1 to <3)
CI50 growth inhibition (WSU-NHL; combination with Dexamethasone): T (T=0.5 to <0.7)
CI50 inhibition (WSU-NHL; combination with Dexamethasone): T (T=0.5 to <0.7)
Synergy Score growth inhibition (WSU-NHL; combination with Dexamethasone): A3 (A3=>3)
Synergy Score inhibition (WSU-NHL; combination with Dexamethasone): A3 (A3=>3)
CI50 growth inhibition (WSU-NHL; combination with LEE011): T (T=0.5 to <0.7)
CI50 inhibition (WSU-NHL; combination with LEE011): S (S=0.01 to <0.5)
Synergy Score growth inhibition (WSU-NHL; combination with LEE011): A2 (A2=1 to <3)
Synergy Score inhibition (WSU-NHL; combination with LEE011): A2 (A2=1 to <3)
CI50 growth inhibition (WSU-NHL; combination with PCI-32765): S (S=0.01 to <0.5)
CI50 inhibition (WSU-NHL; combination with PCI-32765): S (S=0.01 to <0.5)
Synergy Score growth inhibition (WSU-NHL; combination with PCI-32765): A3 (A3=>3)
Synergy Score inhibition (WSU-NHL; combination with PCI-32765): A3 (A3=>3)
CI50 growth inhibition (WSU-NHL; combination with PD-0332991): S (S=0.01 to <0.5)
CI50 inhibition (WSU-NHL; combination with PD-0332991): S (S=0.01 to <0.5)
Synergy Score growth inhibition (WSU-NHL; combination with PD-0332991): A2 (A2=1 to <3)
Synergy Score inhibition (WSU-NHL; combination with PD-0332991): A2 (A2=1 to <3)
CI50 growth inhibition (DOHH-2; combination with Dexamethasone): T (T=0.5 to <0.7)
CI50 inhibition (DOHH-2; combination with Dexamethasone): U (U=0.7 to <1)
Synergy Score growth inhibition (DOHH-2; combination with Dexamethasone): A3 (A3=>3)
Synergy Score inhibition (DOHH-2; combination with Dexamethasone): A2 (A2=1 to <3)
CI50 growth inhibition (DOHH-2; combination with LEE011): T (T=0.5 to <0.7)
CI50 inhibition (DOHH-2; combination with LEE011): T (T=0.5 to <0.7)
Synergy Score growth inhibition (DOHH-2; combination with LEE011): A3 (A3=>3)
Synergy Score inhibition (DOHH-2; combination with LEE011): A2 (A2=1 to <3)
CI50 growth inhibition (DOHH-2; combination with PCI-32765): S (S=0.01 to <0.5)
CI50 inhibition (DOHH-2; combination with PCI-32765): S (S=0.01 to <0.5)
Synergy Score growth inhibition (DOHH-2; combination with PCI-32765): A3 (A3=>3)
Synergy Score inhibition (DOHH-2; combination with PCI-32765): A3 (A3=>3)
CI50 growth inhibition (DOHH-2; combination with PD-0332991): T (T=0.5 to <0.7)
CI50 inhibition (DOHH-2; combination with PD-0332991): T (T=0.5 to <0.7)
Synergy Score growth inhibition (DOHH-2; combination with PD-0332991): A3 (A3=>3)
Synergy Score inhibition (DOHH-2; combination with PD-0332991): A2 (A2=1 to <3)
CI50 growth inhibition (SU-DHL-4-epst; combination with Dexamethasone): S (S=0.01 to <0.5)
CI50 inhibition (SU-DHL-4-epst; combination with Dexamethasone): S (S=0.01 to <0.5)
Synergy Score growth inhibition (SU-DHL-4-epst; combination with Dexamethasone): A3 (A3=>3)
Synergy Score inhibition (SU-DHL-4-epst; combination with Dexamethasone): A3 (A3=>3)
CI50 growth inhibition (SU-DHL-4-epst; combination with LEE011): S (S=0.01 to <0.5)
CI50 inhibition (SU-DHL-4-epst; combination with LEE011): T (T=0.5 to <0.7)
Synergy Score growth inhibition (SU-DHL-4-epst; combination with LEE011): A2 (A2=1 to <3)
Synergy Score inhibition (SU-DHL-4-epst; combination with LEE011): A2 (A2=1 to <3)
CI50 growth inhibition (SU-DHL-4-epst; combination with PCI-32765): S (S=0.01 to <0.5)
CI50 inhibition (SU-DHL-4-epst; combination with PCI-32765): S (S=0.01 to <0.5)
Synergy Score growth inhibition (SU-DHL-4-epst; combination with PCI-32765): A3 (A3=>3)
Synergy Score inhibition (SU-DHL-4-epst; combination with PCI-32765): A2 (A2=1 to <3)
CI50 growth inhibition (SU-DHL-4-epst; combination with PD-0332991): S (S=0.01 to <0.5)
CI50 inhibition (SU-DHL-4-epst; combination with PD-0332991): S (S=0.01 to <0.5)
Synergy Score growth inhibition (SU-DHL-4-epst; combination with PD-0332991): A3 (A3=>3)
Synergy Score inhibition (SU-DHL-4-epst; combination with PD-0332991): A2 (A2=1 to <3)
CI50 growth inhibition (RL; combination with Dexamethasone): T (T=0.5 to <0.7)
CI50 inhibition (RL; combination with Dexamethasone): T (T=0.5 to <0.7)
Synergy Score growth inhibition (RL; combination with Dexamethasone): A3 (A3=>3)
Synergy Score inhibition (RL; combination with Dexamethasone): A2 (A2=1 to <3)
CI50 growth inhibition (RL; combination with LEE011): T (T=0.5 to <0.7)
CI50 inhibition (RL; combination with LEE011): U (U=0.7 to <1)
Synergy Score growth inhibition (RL; combination with LEE011): A2 (A2=1 to <3)
Synergy Score inhibition (RL; combination with LEE011): A1 (A1=0.0001 to <1)
CI50 growth inhibition (RL; combination with PCI-32765): T (T=0.5 to <0.7)
CI50 inhibition (RL; combination with PCI-32765): S (S=0.01 to <0.5)
Synergy Score growth inhibition (RL; combination with PCI-32765): A2 (A2=1 to <3)
Synergy Score inhibition (RL; combination with PCI-32765): A2 (A2=1 to <3)
CI50 growth inhibition (RL; combination with PD-0332991): S (S=0.01 to <0.5)
CI50 inhibition (RL; combination with PD-0332991): S (S=0.01 to <0.5)
Synergy Score growth inhibition (RL; combination with PD-0332991): A2 (A2=1 to <3)
Synergy Score inhibition (RL; combination with PD-0332991): A2 (A2=1 to <3)
